System: DU-145 cells
Format: cell-based, Human

## C=C1[C@@H](C)[C@H]2[C@H](Cc3ccccc3)NC(=O)[C@]23[C@H](OC(C)=O)/C=C/[C@@](C)(O)C(=O)[C@@H](C)C/C=C/[C@H]3[C@@H]1O [Cytochalasin-D]
  Reduction in cell migration compared to cells treated with media alone: did not migrate
  Relative Wound Density at 24 Hours, Mean: 3.3 ± 0.2
  Relative Wound Density at 24 Hours, Percent Relative to Media: 4%

From patent US20120207743A1 (priority 2011, published 2012)
